# Columns and labels:
# αMI-domain = αMI-domain binding to cellulose-bound peptide libraries (SPOT, autoradiography, densitometry); conditions: for Densitometry, % (αMI-domain binding): 9-mer peptides, 3-residue offset, N-acetylated, cellulose-bound via (β-Ala)2, 10 μg/ml 125I-labeled αMI-domain (active form), TBS 1 mM MgCl2, percentage of binding to peptide #1 (100 %); for αMI-domain binding (in words): cellulose-bound 9-mer libraries, 125I-labeled αMI-domain
# Method: Fig. 1 Screening of the peptide library spanning the sequence of dynorphin AB for αMI-domain binding. a, Amino acid sequence of dynorphin AB (residues 1–32). b, Cellulose membrane with the assembled peptide library consisting of 9-mer peptides with three-residue offset was incubated with ^125I-labeled αMI-domain and subjected to autoradiography followed by densitometry. The αMI-domain binding was observed as dark spots. Spot #10 contains only the β-Ala spacer. The αMI-domain binding was expressed as a percentage of binding to peptide #1, which was assigned a value 100 % and is shown as the numbers on the right of each sequence. The peptide energies that serve as a measure of probability each peptide can interact with the αMI-domain were calculated as described TEXT PRINTED IN THE PICTURE: (B) 1 ([…]): Densitometry, %: 100; Energy, J/mole: -13824 | (B) 2 ([…]): Densitometry, %: 100; Energy, J/mole: -17197 | (B) 3 ([…]): Densitometry, %: 75; Energy, J/mole: -9119 | (B) 4 ([…]): Densitometry, %: 60; Energy, J/mole: -650 | (B) 5 ([…]): Densitometry, %: 40; Energy, J/mole: -2880 | (B) 6 ([…]): Densitometry, %: 90; Energy, J/mole: -5355 | (B) 7 ([…]): Densitometry, %: 90; Energy, J/mole: -12541 | (B) 8 ([…]): Densitometry, %: 100; Energy, J/mole: -12344 | (B) 9 ([…]): Densitometry, %: 100; Energy, J/mole: -9738 | (B) 10 (β-alanine control): Densitometry, %: 0 | (B) Control peptide ([…]): Energy, J/mole: 11107
# Peptide libraries derived from dynorphin AB assembled on cellulose membrane supports were prepared by parallel spot synthesis as previously described. Peptides were COOH-terminally attached to cellulose via a (β-Ala)2 spacer and were acetylated N-terminally. The membrane-bound peptides were tested for their ability to bind the αMI-domain according to a previously described procedure. In brief, the membrane was blocked with 1 % BSA and then incubated with 10 μg/ml of ^125I-labeled αMI-domain in TBS containing 1 mM MgCl2. After washing, the membrane was dried and the αMI-domain binding was visualized by autoradiography.
# Additional file 1: Figure S1. Identification of residues in dynorphin A critical for α MI-domain binding. The dynorphin AB-based substitutional peptide libraries with single, double or triple mutations of basic residues were prepared by SPOT synthesis as described in Experimental Procedures. Mutated amino acid residues are shown in red. The membranes with synthesized peptide libraries were incubated with ^125I-labeled α MI-domain and subjected to autoradiography. The α MI-domain binding was analyzed by densitometry and expressed in arbitrary units with the strongest binding to wild-type peptides assigning a value of 4+. The peptides that partially lost their ability to bind the α MI-domain were grouped according to their activity and marked as 3+, 2+ and +. The peptides that lost their ability to bind the α MI-domain are marked with “NB “.
# Mac-1 = Mac-1 mediated cell adhesion, effect of naloxone; type: cell-based; conditions: control experiments, not shown
# U937 monocytic cells = experiment: Chemotaxis migration assay of U937 cells to Dyn A agarose gel; type: cell-based, human
# Method: Fig. 7 Chemotactic response of U937 cells to Dyn A. a, schematic representation of the experimental format. U937 cells (5x10^4) were placed in the center of the coverslip between two agar gels, one containing Dyn A and control gel without Dyn A. After 2 h at 37 °C, a series of photographs was taken in the direction of migration at 1-mm intervals to count the number of migrating cells. b , representative images after 2 h of migration show the cells within the starting point (marked with a cross; right panels) and at the border of the Dyn A-containing agar drop (left panels). […] Two bottom panels show the experimental condition with no Dyn A gradient. c, quantification of U937 cells migrated from the initial point after 2 h based on the results shown in A (right panel). Migration of control untreated U937 cells that completely migrated from the initial point of cell placement was assigned a value of 100 %. In contrast, there was no cell migration without a Dyn A gradient (0 %). […] A representative experiment is shown. d, distribution of U937 cells between two gels: Dyn A-containing (on the left) and without Dyn A (on the right). “0” on abscissa corresponds to the initial point where cells were loaded and the numbers show the distance that cells migrated in both directions from the starting point. All cells in each of 10 consecutive fields towards the Dyn A-containing and empty gels were counted and plotted as a distance from the starting point
# Chemotaxis assays using U937 monocytic cells were performed on 22 × 22 mm cover slips. 1 % agarose (Life Technologies, Carlsbad, CA) was dissolved in HBSS by heating. After cooling, the agarose solution was mixed with Dyn A to obtain a final concentration of 10 μM. A 10 μl drop of warm agarose solution containing Dyn A was placed at one corner of the cover glass at ~1.5 mm from the edge. A control agarose drop was placed diagonally at the opposite corner of the cover glass. Agarose was allowed to solidify for 5 min, and the cover glasses were placed into wells of the 6-well plate filled with 5 ml of RPMI 1640 + 10 % FBS. A 10-μl aliquot of U937 cells (5x10^4) was loaded in the center of the cover glass and the plate was incubated for 2 h at 37 °C in a humidified atmosphere containing 5 % CO2. In this experimental format, the cells sediment approximately 5 min after loading, forming an ~4 mm circle, and begin to migrate towards the Dyn A-containing agarose drop. […] The photographs were taken at 1-mm intervals in the direction of cell migration towards the dynorphin-containing or control agarose drops without dynorphin A. The number of cells at the starting point and in each of 10 consecutive fields towards the dynorphin-containing and empty gels were counted and plotted as a distance from the starting point.
# IC-21 macrophages = experiment: Phagocytosis of Dyn A-coated latex beads by IC-21 macrophages; type: cell-based, murine; conditions: heparin 20 μg/ml, naloxone 10 μM, rat IgG2b isotype control
# Method: Fig. 8 Effect of Dyn A on phagocytosis of latex beads. a, Fluorescent latex beads (1x10^9/ml) were preincubated with Dyn A (50 μg/ml) for 40 min at 37 °C. Soluble peptide was removed from the beads by high-speed centrifugation. Peptide-coated beads were incubated with adherent IC-21 macrophages for 30 min at 37 °C. Nonphagocytosed beads were removed from cells by washing with PBS. […] Rat IgG2b was used as an isotype control for anti-αM mAb M1/70. Phagocytosis was quantified for five random fields per well using a 20x objective. Phagocytosis of Dyn A-treated beads was assigned as 100 %.
# A suspension of fluorescent […] latex beads (1x10^9/ml) (FluoSpheres sulfate microspheres, Life Technologies, Carlsbad, CA) was incubated with 50 μg/ml of Dyn A for 40 min at 37 °C, then unbound peptide was removed by centrifugation. IC-21 murine macrophages (5 × 10^5/ml) were adhered on the cover glass for 30 min and 3 × 10^6 of peptide-coated beads were added to adherent IC-21 cells. After incubating for 30 minutes at 37 °C, nonphagocytosed beads were separated from macrophages by washing with 3x1 ml PBS and phagocytosed beads were counted in the presence of trypan blue. […] The ratio of beads per macrophage was quantified by taking photographs of five fields for each well using a Leica DM4000 B microscope (Leica Microsystems, Buffalo Grove, IL) with a 20 × objective.
# [1] = system: Mac-1 (Mac-1-HEK293 cells); experiment: Inhibition of adhesion of Mac-1-HEK293 cells to Dyn A; type: cell-based, Human; conditions: 2 μM Dyn A coating; for Inhibition of adhesion to Dyn A in combination with NIF (in words): glycosaminoglycan 10 μg/ml with NIF; for Inhibition of adhesion to Dyn A (in words): wells preincubated with glycosaminoglycan 10 μg/ml, 20 min, alone
# Method: (§1) For testing the role of glucosaminoglycans in cell adhesion, dynorphin A-coated wells were preincubated with 100 μl of 10 μg/ml of chondroitin sulfate A, chondroitin sulfate B and heparin. Aliquots (5x10^4cells) were added to the wells coated with 2 μM dynorphin A and adhesion was performed as described in A. Adhesion in the absence of Mac-1 inhibitors and glucosaminoglycans was assigned a value of 100 %. The data shown are the means ± S.E. from four separate experiments each with triplicate measurements. d , microtiter plate wells were coated with different concentrations of dynorphin B and adhesion of Mac-1-expressing and wild-type HEK293 cells was determined as described in A. The data shown are means of triplicate determinations, and error bars represent S.E. The figure is representative of 5 experiments. e. calcein-labeled Mac-1-HEK293 cells were preincubated without or with 10 μg/ml of mAb 44a and heparin, added to the wells coated with 20 μM of dynorphin B and adhesion was performed as described in A. Adhesion in the absence of inhibitors was assigned a value of 100 %.
# (§2) Adhesion assays were performed essentially as described previously. […] Cells were labeled with 10 μM calcein for 30 min at 37 °C and washed twice with Hanks’ Balanced salt solution (HBSS) containing 0.1 % BSA. Aliquots (100 μl) of labeled cells (5x10^5/ml) were added to each well and allowed to adhere for 30 min at 37 °C. The non-adherent cells were removed by two washes with PBS. Fluorescence was measured in a CytoFluorII fluorescence plate reader (Perceptive Biosystems, Framingham, MA). In inhibition experiments, cells were mixed with different concentrations of peptides, NIF or mAbs for 20 min at 22 °C before they were added to the wells coated with adhesive substrates. In a separate set of experiments, after coating plates with dynorphins and post-coating with 1 % PVP, plates were incubated with 100 μl of 10 μg/ml chondroitin sulfate A, chondroitin sulfate B, or heparin for 20 min at 22 °C. After aspirating the solution, labeled cells were added and cell adhesion was analyzed as above.
# [2] = system: Mac-1 (Mac-1-HEK293 cells); experiment: Inhibition of adhesion of Mac-1-HEK293 cells to fibrinogen by soluble peptides; type: cell-based, Human; conditions: soluble peptide, 2.5 μg/mL fibrinogen coating
# Method: Fig. 4 Effect of soluble Dyn A on Mac-1-mediated cell adhesion to fibrinogen. a (left ordinate), calcein-labeled Mac-1-HEK293 cells were preincubated with different concentrations of dynorphin A (black bar), dynorphin B (open bar) or control peptide (gray bar) for […] at 22 °C and added to the wells of microtiter plates coated with 2.5 μg/mL fibrinogen. Cells were allowed to adhere for 30 minutes at 37 °C before removing nonadherent cells. […] Data are expressed as a percentage of total cell fluorescence
# as §2, with “In a separate set of experiments, after coating plates with dynorphins and post-coating with 1 % PVP, plates were incubated with 100 μl of 10 μg/ml chondroitin sulfate A, chondroitin sulfate B, or heparin for 20 min at 22 °C.” left out
# [3] = target: T1, Mac-1 (Mac-1-expressing HEK293 cells) (Homo sapiens, UniProt P05107+P11215); experiment: Adhesion of Mac-1-HEK293 cells to immobilized peptide; type: cell-based; conditions: coated wells, calcein-labeled cells, 30 min at 37 °C
# T1 construct: expressed in transfected cells
# Method: as §1, §2
Molecule,"Densitometry, % (αMI-domain binding) (αMI-domain) [%]",αMI-domain binding (in words) (αMI-domain),also measured
YGGFLRRIR,100,highest affinities,–
RYGGFLRRQ,90,–,–
KWDNQKRYG,40,weakened their αMI-domain binding activity,–
C=CCN1CC[C@]23c4c5ccc(O)c4O[C@H]2C(=O)CC[C@@]3(O)[C@H]1C5 [naloxone],–,–,"Effect on Mac-1 mediated cell adhesion (Mac-1): does not affect Mac-1 mediated cell adhesion; Mean distance travelled by inhibitor-treated cells (U937 monocytic cells; Dyn A gradient, 2 h, mAb 44a 20 μg/ml or naloxone 10 μM): ~ 5 mm; Migration from initial point blocked (U937 monocytic cells; mAb 44a 20 μg/ml or naloxone 10 μM, 30 min preincubation, 2 h at 37 °C, representative experiment): ~ 20%; Arrival of inhibitor-treated cells at Dyn A-containing drop (U937 monocytic cells; mAb 44a 20 μg/ml or naloxone 10 μM, 2 h): only a few cells arrived; Cells remaining at the start (U937 monocytic cells; naloxone 10 μM, Dyn A gradient, 2 h): ~ 20%; Effect on Dyn A-mediated phagocytosis (in words) (IC-21 macrophages): did not decrease the number of phagocytosed beads"
RRQFKVVGG,100,–,–
chondroitin sulfate A,–,–,Inhibition of adhesion to Dyn A in combination with NIF (in words) [1]: not exert a statistically significant inhibitory effect; Inhibition of adhesion to Dyn A (in words) [1]: not exert a statistically significant inhibitory effect
"DIDPKLKWD [control peptide, purchased from AnaSpec; also mutant in substitutional library]",–,–,Inhibition of adhesion to fibrinogen (in words) [2]: only slightly inhibitory; Adhesion of Mac-1-HEK293 cells (in words) [3]: failed to support adhesion
chondroitin sulfate B,–,–,Inhibition of adhesion to Dyn A in combination with NIF (in words) [1]: not exert a statistically significant inhibitory effect; Inhibition of adhesion to Dyn A (in words) [1]: not exert a statistically significant inhibitory effect
FLRRIRPKL,100,highest affinities,–
RIRPKLKWD,75,weakened their αMI-domain binding activity,–
PKLKWDNQK,60,weakened their αMI-domain binding activity,–
NQKRYGGFL,90,–,–
GFLRRQFKV,100,–,–
heparin,–,–,Inhibition of adhesion to Dyn A (in words) [1]: slight inhibition; Effect on Dyn A-mediated phagocytosis (in words) (IC-21 macrophages): did not decrease the number of phagocytosed beads

# From paper PMC4481117 (Molecular Pain, 2015)
